Results from patent US6525001B1, “Substituted pyrimidine and pyridine herbicides” (Mid-American Commercialization Corporation, priority 1997, dated 2003).

Columns and labels:
Type in all cases: in vivo
[1] = tested on: velvetleaf (Abutilon theophrasti); assay: Test C; set-up: key: 0 was no effect; 100 was complete control; conditions: PREEMERGENCE
[2] = tested on: surinam grass (Brachiaria decumbens); assay: Test C; set-up: key: 0 was no effect; 100 was complete control; conditions: PREEMERGENCE
[3] = tested on: corn (Zea mays); assay: Test C; set-up: key: 0 was no effect; 100 was complete control; conditions: PREEMERGENCE
[4] = tested on: cotton (Gossypium hirsutum); assay: Test C; set-up: key: 0 was no effect; 100 was complete control; conditions: PREEMERGENCE
[5] = tested on: giant foxtail (Setaria faberii); assay: Test C; set-up: key: 0 was no effect; 100 was complete control; conditions: PREEMERGENCE
[6] = tested on: cocklebur (Xanthium strumarium); assay: Test C; set-up: key: 0 was no effect; 100 was complete control; conditions: PREEMERGENCE
[7] = tested on: common ragweed (Ambrosia elatior); assay: Test C; set-up: key: 0 was no effect; 100 was complete control; conditions: PREEMERGENCE
[8] = tested on: giant foxtail (Setaria faberii); assay: Test B pre-/postemergence; set-up: key: 0 is no effect; 10 is complete control
How it was run: (§1)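 Compounds in a surfactant-containing, non-phytotoxic solvent blend are applied to freshly planted seed (preemergence) and, concurrently, to seedlings of 2 to 18 cm at 1–4 leaves (postemergence). Plants stay in the greenhouse twelve to sixteen days and are then scored visually from 0 (no effect) to 10 (complete control).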

[9] = tested on: wild oat (Avena fatua); assay: Test B pre-/postemergence; set-up: key: 0 is no effect; 10 is complete control
How it was run: as §1

[10] = tested on: broadleaf signalgrass (Brachiaria decumbens); assay: Test B pre-/postemergence; set-up: key: 0 is no effect; 10 is complete control
How it was run: as §1

[11] = tested on: bedstraw (Galium aparine); assay: Test B pre-/postemergence; set-up: key: 0 is no effect; 10 is complete control
How it was run: as §1

[12] = tested on: momingglory (Ipomoea hederacea); assay: Test B pre-/postemergence; set-up: key: 0 is no effect; 10 is complete control
How it was run: as §1

[13] = Rate 250 g/ha, Postemergence (so in the source)

## Cc1cnc(-n2cnc(C(F)(F)F)n2)nc1Cc1cccc(C(F)(F)F)c1 [Compound 43]
[1]; Rate 35 g/ha
  Plant response rating, Velvetleaf: 100
[1]; Rate 70 g/ha
  Plant response rating, Velvetleaf: 100
[1]; Rate 140 g/ha
  Plant response rating, Velvetleaf: 100
[2]; Rate 35 g/ha
  Plant response rating, Surinam grass: 0
[2]; Rate 70 g/ha
  Plant response rating, Surinam grass: 5
[2]; Rate 140 g/ha
  Plant response rating, Surinam grass: 10
[3]; Rate 35 g/ha
  Plant response rating, Corn: 0
[3]; Rate 70 g/ha
  Plant response rating, Corn: 30
[3]; Rate 140 g/ha
  Plant response rating, Corn: 55
[4]; Rate 35 g/ha
  Plant response rating, Cotton: 0
[4]; Rate 70 g/ha
  Plant response rating, Cotton: 0
[4]; Rate 140 g/ha
  Plant response rating, Cotton: 10
[5]; Rate 35 g/ha
  Plant response rating, Giant foxtail: 100
[5]; Rate 70 g/ha
  Plant response rating, Giant foxtail: 100
[5]; Rate 140 g/ha
  Plant response rating, Giant foxtail: 100
[6]; Rate 35 g/ha
  Plant response rating, Cocklebur: 0
[7]; Rate 35 g/ha
  Plant response rating, Common ragweed: 0
[7]; Rate 70 g/ha
  Plant response rating, Common ragweed: 40
[7]; Rate 140 g/ha
  Plant response rating, Common ragweed: 50
[8]; Rate 62 g/ha, Postemergence
  Plant response rating, Giant foxtail: 8
[8]; Rate 62 g/ha, Preemergence
  Giant foxtail plant response rating: 7
[8]; Rate 125 g/ha, Postemergence
  Giant foxtail plant response rating: 9
[8]; Rate 125 g/ha, Preemergence
  Giant foxtail plant response rating: 9
[8]; Rate 250 g/ha, Postemergence
  Plant response rating, Giant foxtail: 9
[8]; [13]
  Plant response rating, Giant foxtail: 9
[9]; Rate 62 g/ha, Postemergence
  Wild oats plant response rating: 4
[9]; Rate 62 g/ha, Preemergence
  Wild oats plant response rating: 6
[9]; Rate 125 g/ha, Postemergence
  Wild oats plant response rating: 5
[9]; Rate 125 g/ha, Preemergence
  Plant response rating, Wild oats: 9
[9]; Rate 250 g/ha, Postemergence
  Plant response rating, Wild oats: 6
[9]; [13]
  Plant response rating, Wild oats: 9
[10]; Rate 62 g/ha, Postemergence
  Plant response rating, B. signalgrass: 4
[10]; Rate 62 g/ha, Preemergence
  B. signalgrass plant response rating: 5
[10]; Rate 125 g/ha, Postemergence
  Plant response rating, B. signalgrass: 4
[10]; Rate 125 g/ha, Preemergence
  B. signalgrass plant response rating: 9
[10]; Rate 250 g/ha, Postemergence
  Plant response rating, B. signalgrass: 6
[10]; Rate 250 g/ha, Postemergence as printed in head r139 (second section for compounds 26-50)
  Plant response rating, B. signalgrass: 9
[11]; Rate 62 g/ha, Postemergence
  Plant response rating, Bedstraw: 9
[11]; Rate 62 g/ha, Preemergence
  Bedstraw plant response rating: 8
[11]; Rate 125 g/ha, Postemergence
  Plant response rating, Bedstraw: 10
[11]; Rate 125 g/ha, Preemergence
  Bedstraw plant response rating: 9
[11]; Rate 250 g/ha, Postemergence
  Plant response rating, Bedstraw: 10
[11]; [13]
  Plant response rating, Bedstraw: 10
[12]; Rate 62 g/ha, Postemergence
  Plant response rating, Morningglory: 9
[12]; Rate 62 g/ha, Preemergence
  Morningglory plant response rating: 9
[12]; Rate 125 g/ha, Postemergence
  Morningglory plant response rating: 9
[12]; Rate 125 g/ha, Preemergence
  Morningglory plant response rating: 10
[12]; Rate 250 g/ha, Postemergence
  Plant response rating, Morningglory: 10
[12]; [13]
  Plant response rating, Morningglory: 10

## Cc1cnc(-n2ccc(C(F)(F)F)n2)nc1Cn1ccc(C(F)(F)F)n1 [Compound 52]
[1]; Rate 35 g/ha
  Plant response rating, Velvetleaf: 70
[1]; Rate 70 g/ha
  Plant response rating, Velvetleaf: 100
[1]; Rate 140 g/ha
  Plant response rating, Velvetleaf: 100
[2]; Rate 35 g/ha
  Plant response rating, Surinam grass: 5
[2]; Rate 70 g/ha
  Plant response rating, Surinam grass: 40
[2]; Rate 140 g/ha
  Plant response rating, Surinam grass: 70
[3]; Rate 35 g/ha
  Plant response rating, Corn: 0
[3]; Rate 70 g/ha
  Plant response rating, Corn: 45
[3]; Rate 140 g/ha
  Plant response rating, Corn: 50
[4]; Rate 35 g/ha
  Plant response rating, Cotton: 0
[4]; Rate 70 g/ha
  Plant response rating, Cotton: 0
[4]; Rate 140 g/ha
  Plant response rating, Cotton: 70
[5]; Rate 35 g/ha
  Plant response rating, Giant foxtail: 70
[5]; Rate 70 g/ha
  Plant response rating, Giant foxtail: 85
[5]; Rate 140 g/ha
  Plant response rating, Giant foxtail: 100
[6]; Rate 70 g/ha
  Plant response rating, Cocklebur: 0
[6]; Rate 140 g/ha
  Plant response rating, Cocklebur: 20
[7]; Rate 35 g/ha
  Plant response rating, Common ragweed: 40
[7]; Rate 70 g/ha
  Plant response rating, Common ragweed: 60
[7]; Rate 140 g/ha
  Plant response rating, Common ragweed: 100
[8]; Rate 62 g/ha, Postemergence
  Plant response rating, Giant foxtail: 7
[8]; Rate 62 g/ha, Preemergence
  Giant foxtail plant response rating: 9
[8]; Rate 125 g/ha, Postemergence
  Giant foxtail plant response rating: 8
[8]; Rate 125 g/ha, Preemergence
  Plant response rating, Giant foxtail: 9
[8]; Rate 250 g/ha, Postemergence
  Plant response rating, Giant foxtail: 9
[8]; Rate 250 g/ha, Preemergence
  Plant response rating, Giant foxtail: 10
[8]; Rate 500 g/ha, Postemergence
  Plant response rating, Giant foxtail: 9
[8]; Rate 500 g/ha, Preemergence
  Plant response rating, Giant foxtail: 10
[9]; Rate 62 g/ha, Postemergence
  Wild oats plant response rating: 6
[9]; Rate 62 g/ha, Preemergence
  Wild oats plant response rating: 3
[9]; Rate 125 g/ha, Postemergence
  Wild oats plant response rating: 8
[9]; Rate 125 g/ha, Preemergence
  Plant response rating, Wild oats: 5
[9]; Rate 250 g/ha, Postemergence
  Plant response rating, Wild oats: 8
[9]; Rate 250 g/ha, Preemergence
  Plant response rating, Wild oats: 9
[9]; Rate 500 g/ha, Postemergence
  Plant response rating, Wild oats: 9
[9]; Rate 500 g/ha, Preemergence
  Plant response rating, Wild oats: 10
[10]; Rate 62 g/ha, Postemergence
  Plant response rating, B. signalgrass: 4
[10]; Rate 62 g/ha, Preemergence
  B. signalgrass plant response rating: 8
[10]; Rate 125 g/ha, Postemergence
  B. signalgrass plant response rating: 9
[10]; Rate 125 g/ha, Preemergence
  Plant response rating, B. signalgrass: 9
[10]; Rate 250 g/ha, Postemergence
  Plant response rating, B. signalgrass: 9
[10]; Rate 250 g/ha, Preemergence
  Plant response rating, B. signalgrass: 10
[10]; Rate 500 g/ha, Postemergence
  Plant response rating, B. signalgrass: 9
[10]; Rate 500 g/ha, Preemergence
  Plant response rating, B. signalgrass: 10
[11]; Rate 62 g/ha, Postemergence
  Plant response rating, Bedstraw: 9
[11]; Rate 62 g/ha, Preemergence
  Bedstraw plant response rating: 7
[11]; Rate 125 g/ha, Postemergence
  Bedstraw plant response rating: 10
[11]; Rate 125 g/ha, Preemergence
  Plant response rating, Bedstraw: 8
[11]; Rate 250 g/ha, Postemergence
  Plant response rating, Bedstraw: 10
[11]; Rate 250 g/ha, Preemergence
  Plant response rating, Bedstraw: 9
[11]; Rate 500 g/ha, Postemergence
  Plant response rating, Bedstraw: 10
[11]; Rate 500 g/ha, Preemergence
  Plant response rating, Bedstraw: 10
[12]; Rate 62 g/ha, Postemergence
  Plant response rating, Morningglory: 10
[12]; Rate 62 g/ha, Preemergence
  Morningglory plant response rating: 9
[12]; Rate 125 g/ha, Postemergence
  Morningglory plant response rating: 10
[12]; Rate 125 g/ha, Preemergence
  Plant response rating, Morningglory: 10
[12]; Rate 250 g/ha, Postemergence
  Plant response rating, Morningglory: 10
[12]; Rate 250 g/ha, Preemergence
  Plant response rating, Morningglory: 10
[12]; Rate 500 g/ha, Postemergence
  Plant response rating, Morningglory: 10
[12]; Rate 500 g/ha, Preemergence
  Plant response rating, Morningglory: 10
